{"source": "patent US20260234159A1", "about": "“SMALL MOLECULE TREATMENT OF FATTY LIVER DISEASE AND HCC” (SCANDIEDGE THERAPEUTICS AB, priority 2023, published 2026)", "key": {"[1]": {"test": "In vivo biosafety study in rats: histopathological and immunohistochemical examination", "set-up": "species or system Sprague Dawley male rats", "conditions": "30 mg/kg, seven days", "method": "In vivo biosafety studies. Healthy Sprague Dawley male rats (12 weeks old, 250-280 g) were obtained from Atatürk University Experimental Research Center ([…] Turkey) and housed under standard environmental conditions (temperature 20° C.-25° C., humidity 50±20% and 12-hour light/dark diurnal cycle). Food and water were available ad libitum. Rats were randomly separated into one control group and two experimental groups (30 mg/kg/day BX-912 or JNK-IN-5A, n=5). […] The control group were received the same amount of vehicle solution only. After 7 days, rats were anaesthetized, and blood samples were collected from the abdominal aorta for biochemical and haematological analysis. The plasma was separated and stored at -80° C. for further analysis. Major organs such as heart, kidney, liver, muscle, adipose, intestine (duodenum, ileum, jejunum), pancreas, colon, and stomach were collected from all the animals for further analysis. Selected organs were fixed in 10% neutral buffered formalin for histopathological examination. Histopathological examination. […] Immunohistochemical examination. […] Slides were counter stained with hematoxylin."}, "[2]": {"system": "polychromatic erythrocytes", "test": "Micronucleus frequencies (MNPCEs) as genotoxicity endpoint", "type": "in vivo, Sprague Dawley male rats", "conditions": "30 mg/kg, seven days", "method": "In addition to sampling for biochemical and haematological analysis, one drop of blood samples was obtained from the animals for evaluating micronucleus frequencies as genotoxicity endpoint at the end of the experiments. Three different smears of each rat were prepared using pre-coded and cold slides, then the slides air-dried at room temperature, and fixed in ethanol for 10 min, and stained with Giemsa. […] The incidence of MN-PCEs was determined by scoring a total of 3000 PCE per animal and results were expressed as % MN [12]."}, "[3]": {"system": "HSD fed rats", "test": "In vivo efficacy study in high sucrose diet (HSD) steatosis rats", "conditions": "HSD plus 30 mg/kg seven days", "source_text": "In vivo efficacy studies. After 1-week acclimation period, rats were randomly separated into two groups: control group (n=5) and high sucrose group (n=20). The control group was fed with a standard diet while the others consumed high sucrose diet (HSD). Sucrose was purchased from Sigma Chemical Co. (St Louis, MO, USA) and supplied at the dose of 10% in the drink water for two weeks.\nAfter 2 weeks, five rats in the HSD group were randomly sacrificed for conformation of NAFLD model. Then, the remaining rats in the HSD group were separated into three sub-groups (n=5): HSD group, HSD plus BX-912 group and HSD plus JNK-IN-5A group. BX-912 and JNK-IN-5A were dissolved in DMSO and were orally administrated using oral gavage for one week (30 mg/kg/day). The HSD group were treated with vehicle solution only.\nAt the end of the experiment, rats were sacrificed after being anesthetized. Blood samples were collected from the abdominal aorta and centrifuged at 8000 rpm for 15 min at 4° C. The plasma was separated and stored at −80° C. until further analysis. Other internal organs, including the heart, adipose tissues, liver, kidney, muscle, intestine (duodenum, ileum, jejunum), pancreas, colon and stomach were immediately removed and then snap frozen in liquid nitrogen and stored at −80° C.; the liver was also fixed in 10% formaldehyde for histopathological examination.\nHistopathological examination. The liver tissues were fixed in 10% buffered formaldehyde solution. After fixation, the tissues were passed through graded alcohol and xylene series and embedded in paraffin blocks. 5 micrometer thick sections were taken serially from the paraffin blocks. Histopathological changes were evaluated by performing hematoxylin eosin staining on the sections taken. Sections were evaluated according to histopathological findings as none (−), mild (+), moderate (++) and severe (+++).\nImmunohistochemical examination. After deparaffinization, the slides were immersed in antigen retrieval solution (pH 6.0) and heated in microwave for 15 min to unmask the antigens. The sections were then dipped in 3% H2O2 for 10 min to block endogenous peroxidase activity. Protein block was dropped onto the sections, washed with PBS for 10 min. Primary antibodies (8-OH-dG, Cat No: sc-66036, Diluent Ratio: 1/100, Santa Cruz) were prepared and applied according to the usage conditions. Expose mouse and rabbit specific HRP/DAB detection IHC kit were used as follows: sections were incubated with goat anti-mouse antibody, then with streptavidin peroxidase, and finally with 3,3′ diamino benzidine+chromogen. Slides were counter stained with hematoxylin. Immunoreactivity in the sections were graded as none (−), mild (+), moderate (++) and severe (+++)."}, "[4]": {"system": "HepG2 cells", "test": "FACs analysis with PI staining (cell cycle)", "type": "cell-based, human", "conditions": "PI FACs, 10 μM, 2 days", "method": "400,000 HepG2 cells were seeded in a 6-well plated and treated with 10 μM of the compounds for 2 days. Cells were fixed with 70% ethanol and stained with 50 μg/ml PI. Prepared cells were analysed using BD FACS Canto II Flow Cytometry system at PE-A channel 10,000 cells per group. The data was histogram plotted with BD FACSDiva 9.0."}, "[5]": {"system": "JNK1/2/3", "test": "Western blot, JNK1/2/3 P54 and p46 isoforms", "type": "cell-based, human", "conditions": "10 μM, 2 days", "method": "HepG2 cells were seeded into a 6-well plate at 400,000 cells per well. After treatment with 10 μM of JNK-IN-5A and its derivatives for two days, lysates were harvested with CelLytic M (C2978, Sigma-Aldrich). […] SDS PAGE were performed using Mini-PROTEAN® TGX™ Precast Gels (Bio-Rad) and transferred using Trans-Blot® Turbo™ Transfer System (Bio-Rad). […] ImageQuantTMLAS 500 (29-0050-63, GE) was used to detect protein bands."}, "[6]": {"system": "HepG2 cells", "test": "Triglyceride (TAG) measurement assay, one week steatosis model", "type": "cell-based, human", "conditions": "Homo sapiens", "method": "(§1) HepG2 wild type cells were purchased from genome engineering company Synthego. Cells were maintained with Roswell Park Memorial Institute growth media, RPMI, 1640 (R2405, Sigma-Aldrich) and supplemented with 10% fetal bovine serum (FBS, F7524, Sigma-Aldrich), 1% penicillin-streptomycin (P/S, P4333, Sigma-Aldrich). Steatosis induction media was prepared as high glucose Dulbecco's Modified Eagle Media (DMEM, D0819, Sigma-Aldrich) with 10% FBS, 1% P/S media supplemented with 10 μg/ml insulin (I9278, Sigma-Aldrich), and 10 μM T0901317 (T2320, Sigma-Aldrich). HepG2 cells were seeded 6×10^4 cells per well for 96-well plate and 1×10^6 cells per well for 6-well plate. HepG2 cells were incubated with steatosis induce media (SM) for one week by 3 day+2 day+2 day with total three times media exchange.\nHepG2 cells were seeded at 6×10^4 cells per well into 96 well plate and induced steatosis for one week with 10 μM of target drugs. After steatosis induction, cells were washed with 200 μl of phosphate buffered saline (PBS) and triglyceride contents was measured by Triglyceride Assay Kit—Quantification (ab65336, Abcam) following manufacturer's instruction. Optical density (O.D) values were detected with microplate reader at 570 nm (Hidex Sense Beta Plus).\n(§2) HepG2 cells were seeded at 60,000 cells per well in 96 well plate. Using steatosis induce media, the cells were treated with 10 μM of target drugs for one week. The media was changed 3 times at day 0, day 3 and day 5. TAG assay was performed using MAK266-1KT SDS Triglyceride Quantification Colorimetric kit and cell viability analysis was performed using MTT assay."}, "[7]": {"system": "HepG2 cells", "test": "Invasion assay (transwell)", "type": "cell-based, human", "conditions": "Homo sapiens, HepG2, 24 hr, read-out: invasiveness reduced by", "method": "The effects of the treatment with the compounds on the invasion ability of HepG2 and Huh7 cells were determined by 8 μm pores transwell chamber (Corning™ 3464, USA).\n(§3) Transwell membrane was coated with 100 μl collagen (Sigma C3867, USA) diluted with PBS to a concentration of 1 mg/ml. After overnight incubation at 4° C., the collagen solution was discarded and the membrane was washed with PBS. 100,000 cells in 200 μl serum free media together with the tested compounds were added into the upper well and 600 μl of 10% FBS supplemented growth media was added to the lower well as an invasive attractant in a 24-well plate. Cells were incubated at 37° C. in a CO2 incubator for one day. The cells were fixed with 3.7% formaldehyde for 30 minutes at room temperature and washed with PBS twice. The cells were stained with 1% crystal violet in PBS for 20 minutes and residual cells in inner membrane were swabbed gently with a cotton swab. Invaded cells located at the outer membrane were imaged by ZOE Fluorescent Cell Imager (Bio-Rad, USA) and counted by image. For wound healing assay, 100,000 cells per well were seeded into 24-well plates and grown until 95-100% confluent. Linear wound was created by using a 200 μl pipette tip. Image was recorded at the time point of day 0 until control group wound closure with 1 μM of compounds by ZOE Fluorescent Cell Imager (Bio-Rad, USA). Wound areas were measured using ImageJ software."}, "[8]": {"system": "HepG2 cells", "test": "MTT cell viability / IC50 in growth media", "type": "cell-based, human", "method": "(§4) The cytotoxic effects of the synthesized drugs on the HepG2 cells were tested by MTT (Thiazolyl Blue Tetrazolium Bromide) method. HepG2 cells were seeded 2×10^4 cells per well in 96-well plate in 200 μL growth media. […] After the incubation period, 5 mg/ml MTT (M2128, Sigma-Aldrich) solution in PBS (10 μL) was added to each well. After 1 hr, the MTT solution and all media were removed from the wells. 100 μl of DMSO was added and mixed to dissolve the formazan crystals. Cell viability was analysed by measuring the absorbance of the dissolved formazan in a microplate reader at a wavelength of 570 nm with microplate reader (Hidex Sense Beta Plus).\n(§5) HepG2 cells were maintained and used with RPMI 1640 (R2405, Sigma-Aldrich) supplemented with 10% fetal bovine serum (F7524, Sigma-Aldrich), 1% P/S (P4333, Sigma-Aldrich). 20,000 cells per well of HepG2 cells were seeded into a 96-well plate and triplicated for MTT assay and LDH assay. Cell viability was measured by MTT assay (M6494, ThermoFisher) and cytotoxicity was measured by LDH assay kit (ab65393, abcam) by following manufacturer's instructions. Optical density (O.D) was numerated using a microplate reader (Hidex Sense Meta Plus)."}, "[9]": {"test": "MTT cell viability / IC50 in growth media", "type": "cell-based, human", "conditions": "human, HepG2 cells; 10 μM, treatment for 2 days", "method": "as §4, §5"}, "[10]": {"test": "MTT cell viability after one week steatosis (ranking of target molecules)", "type": "cell-based, human", "conditions": "human, HepG2 cells (wild type); HepG2, 10 μM, one week steatosis induce media, MTT; Control 100.00", "method": "as §1, §2"}, "[11]": {"system": "HepG2 cells", "test": "Mitochondrial membrane potential assay (TMRE)", "type": "cell-based, human", "conditions": "10 μM, one day", "method": "HepG2 cells were seeded into a 6-well plate at 400,000 cells per well. After treatment with the compounds at desired concentration and time, TMRE (ab113852, abcam), Autophagy (ab139484, abcam), ROS (ab113851, abcam), and Lipid peroxidation (ab243377, abcam) assay were performed according to manufacturer's instructions. Fluorescence images were taken using ZOE™ Fluorescent Cell Imager (Biorad) and ROI of fluorescence intensity was measured and calculated by Image J. For microplate reader florescence assay, 40,000 of HepG2 cells were seeded into a 96-well plate and triplicated. GFP (Ex480 nm, Em530 nm) and RFP (Ex549 nm, Em574 nm) were measured using a microplate reader (Hidex Sense Meta Plus)."}, "[12]": {"system": "HepG2 cells", "test": "Wound healing assay", "type": "cell-based", "conditions": "Homo sapiens, HepG2, 96 h, day 4, untreated 100% wound closure, read-out: wound healing delayed by", "method": "as §3"}}, "note": "Like-named read-outs stand apart in the source and are kept apart here.", "data": [{"smiles": "O=C(Nc1cccc(Nc2ncc(Br)c(NCCc3cnc[nH]3)n2)c1)N1CCCC1", "note": "[BX-912]", "values": [{"measurement": "histological structures of major organs", "setting": "[1]", "value": "normal histological structures"}, {"measurement": "side effects on the rats", "setting": "[1]", "value": "no side effects"}, {"measurement": "8-OH-dG expression in liver tissues", "setting": "[1]; IHC", "value": "negative"}, {"measurement": "genotoxic potential", "setting": "[2]", "value": "non-genotoxic"}, {"measurement": "frequencies of MNPCEs compared to Ctrl animals", "setting": "[2]; p>0.05", "value": "not statistically different"}, {"measurement": "degeneration in hepatocytes in liver tissues", "setting": "[3]; HSD 3w severe", "value": "Mild"}, {"measurement": "degeneration in renal tubule epithelium", "setting": "[3]; HSD 3w severe", "value": "mild"}, {"measurement": "fattening in the parenchyma cells of pancreas tissues", "setting": "[3]; HSD 3w severe", "value": "mild"}, {"measurement": "steatosis in hepatocytes in liver tissues", "setting": "[3]; HSD 3w severe", "value": "moderate"}, {"measurement": "8-OH-dG expression in hepatocytes", "setting": "[3]; HSD 3w strong", "value": "significantly decreased"}]}, {"smiles": "N#Cc1c(NC(=O)c2cccc3ccccc23)sc2c1CCN(CC(=O)Nc1ccnc(Cl)n1)C2", "note": "[PKL-B172]", "values": [{"measurement": "Cell population G0/G1", "setting": "[4]", "value": 16.7}, {"measurement": "Cell population G2/M", "setting": "[4]", "value": 73.2}, {"measurement": "Cell population S", "setting": "[4]", "value": 2.7}, {"measurement": "JNK1/2/3 p46 expression", "setting": "[5]", "value": "not significantly altered"}, {"measurement": "activity at 10 µM", "setting": "[6]; 168 h, HepG2, 10 μM, one week steatosis induce media, Control 100.00, read-out: TAG (%)", "value": 22, "unit": "%"}, {"measurement": "activity at 10 µM", "setting": "[6]; HepG2, 168 h, ratio between TAG content and cell viability, Control 100.0, read-out: TAG/cell viability", "value": 40.9, "unit": "%"}, {"measurement": "inhibition at 1 µM", "setting": "[7]", "value": 72.3, "unit": "%"}, {"measurement": "IC50", "setting": "[8]; Homo sapiens, 48 h, HepG2, treatment for 2 days, 30 μM to 30 nM", "value": 13.3, "unit": "µM"}, {"measurement": "cell viability of HepG2 cells", "setting": "[8]; especially in cancerous media", "value": "particularly low cell viability"}, {"measurement": "viability at 2 days, 10 µM", "setting": "[9]", "value": 62.7, "unit": "%"}, {"measurement": "viability at 1 week, 10 µM", "setting": "[10]", "value": 53.7, "unit": "%"}, {"measurement": "mitochondrial membrane potential", "setting": "[11]", "value": "significantly decreased"}, {"measurement": "inhibition at 1 µM", "setting": "[12]", "value": 60.7, "unit": "%"}]}]}
